Test results taken from patent US8076452B2, “Streptavidin-binding peptide” (priority 2002, dated 2011).
Where two headings read alike, the source gives them in different places.

Assays:
streptavidin [1] = biological target: T1, streptavidin (Streptomyces avidinii, UniProt P22629); conditions: prior art; read-out: dissociation constant Kd; cited from earlier work
streptavidin [2] = biological target: T1, streptavidin; test: Dissociation constant measurement, BiacoreX, NTA sensor chip (first measurements); format: binding; conditions: for Kd: FABP with N-terminal 15-aa peptide, C-terminal His6 on NTA chip
Excerpt: Using standard methods for this technology, the FAB protein (fatty acid binding protein) (FABP) from bovine hearts was expressed in vitro in a cell-free protein biosynthesis by means of a coupled transcription/translation system. The expressed FAB protein had at the N terminus an additional streptavidin-binding peptide composed of 15 amino acids with different amino acid sequences as fusion partners.
Two binding peptides contain in their amino acid sequence the HPQ motif (motif 1 and 2) described in the prior art, and two of them contain the streptavidin-binding peptide according to SEQ ID NOS: 1-6 according to the invention (motif 3 and 4). In addition, the expressed proteins were provided at the C terminus with a “His-tag” consisting of 6 histidines. The proteins were purified by means of affinity chromatography via Ni2+IDA-agarose using standard methods. It can be seen that with equal length, binding peptides of a sequence according to the invention have a substantially lower dissociation constant than a binding peptide with HPQ motif.
The measurements of the dissociation constant were performed with a BiacoreX system and the sensor chip NTA of the company Biacore. The proteins generated during the expression described in Example 1 were investigated, i.e. FAB proteins, which had at the N terminus a peptide consisting of 15 amino acids as fusion partners and at the C terminus 6 histidines, which were needed for the immobilization on the sensor chip. The binding affinity of the proteins generated during the expression to streptavidin described in Example 1 was measured in the Biacore device according to manufacturer's instructions. The protein to be investigated is on the sensor chip, and a streptavidin solution having a defined concentration is sprayed in. The interaction (binding) between the two molecules is measured by the device and quantified as so-called resonance units (RU). For the measurement, the buffers specified by the manufacturer were used.

streptavidin [3] = biological target: T1, streptavidin; test: Binding constants by surface plasmon resonance, BIAcore NTA chip, optimized measuring method; conditions: peptide N-terminal of FABP, C-terminal Gly2-His8, 1,100 RU immobilized
Excerpt: The information supplied by the substitution analysis was verified by determining the binding constants of different peptides by surface plasmon resonance spectroscopy using a BIAcore device. The measurements were made with the NTA sensor chip of the company BIAcore and by means of the fatty acid-binding protein from bovine hearts (FABP). The FABP served for the immobilization and presentation of the peptide. Further, it was intended to thus simulate the conditions occurring in an affinity chromatography, since the peptide is to be used in the future as an affinity peptide for the purification of proteins. In contrast to the first measurements, where the peptides to be verified replaced the four N terminal amino acids of the FABP, the arrangement of the peptides was this time also N terminal, but they were not part of the FABP. The His-tag necessary for the immobilization was also modified. It was located same as for the first measurements at the C terminus of the FABP, was however extended from six to eight histidines and further spaced by a linker consisting of two glycines from the FABP. Thereby, the immobilization of the ligands could distinctly be improved, and thus the drift of the base line resulting from the washing-off of the ligand could be minimized. For every measurement, an identical amount of the respective FABPs was immobilized, what corresponded to a rise of the base line by 1,100 resonance units (RU). As a reference was used the FABP with the His-tag, but without N terminal binding peptide.
The binding constants obtained with the optimized measuring method were the following: […]

streptavidin [4] = biological target: T1, streptavidin; test: Substitution analysis by spot synthesis on cellulose membrane, peroxidase-labeled streptavidin, luminescence; format: binding; conditions: peptide spots on cellulose membrane
Excerpt: The binding peptide (FAx 3) with the sequence DVEAWLDERVPLVET [SEQ ID NO: 16] was subjected to a substitution analysis, and it was intended thereby to identify a possible minimum motif (=shortened peptide) and examine the effect of individual amino acid exchanges on the binding specificity. In a substitution analysis, peptides are synthesized by means of spot methods (Frank, R. 1992) on a cellulose membrane serving as a solid phase. Every position of the peptide comprising 15 amino acids was systematically replaced by the other 19 L amino acids.
The substitution analysis was incubated with a peroxidase-labeled streptavidin and developed with a luminescence substrate. Thereby it was possible to find out, how far the peptide can be shortened and which amino acids are “conserved” and thus not or only very poorly exchangeable. […] The substitution analysis also indicated positions, where the exchange of the original amino acid by another one could result in an improvement of the streptavidin binding.

streptavidin-Sepharose = streptavidin-Sepharose (Streptomyces avidinii, UniProt P22629); test: Purification of the FABP fusion protein via streptavidin-Sepharose affinity column
Chain of streptavidin-Sepharose (P22629 25-183): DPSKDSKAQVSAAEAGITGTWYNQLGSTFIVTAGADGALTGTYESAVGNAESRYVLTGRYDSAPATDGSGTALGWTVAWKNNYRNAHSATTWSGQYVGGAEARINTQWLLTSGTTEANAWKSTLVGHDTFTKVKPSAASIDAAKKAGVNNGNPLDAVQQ
Excerpt: (§1) Using standard methods, the FAB protein having at the N terminus an additional peptide consisting of 15 amino acids with the amino acid sequence DVEAWLDERVPLVET [SEQ ID NO: 16] (motif 3) as fusion partners, is expressed in vitro in a cell-free protein biosynthesis by means of a coupled transcription/translation system. For purification of the overexpressed defined protein, the streptavidin was coupled to a solid phase. As a solid phase was used a Sepharose. The expressed FAB protein was then purified using standard methods via a column comprising streptavidin-Sepharose or StrepTactin-Sepharose. For the purification the following buffers were used: washing buffer (100 mM Tris-HCl (pH 8.0), 150 mM NaCl, 1 mM EDTA).
(§2) For the elution of streptavidin, the washing buffer contained 2 mM biotin, and for the elution of StrepTactin, the washing buffer contained 2.5 mM desthiobiotin.
(§3) The percentage distribution of the used defined protein on the various fractions of the affinity chromatography can be taken from Table 3. In Table 3, D represents the application of sample/passage, W washing fraction, and E elution fraction.

StrepTactin-Sepharose = StrepTactin-Sepharose (Streptomyces avidinii, UniProt P22629, E68V/S69T/V71R); test: Purification of the FABP fusion protein via StrepTactin-Sepharose affinity column
Chain of StrepTactin-Sepharose (P22629 38-163 E68V/S69T/V71R): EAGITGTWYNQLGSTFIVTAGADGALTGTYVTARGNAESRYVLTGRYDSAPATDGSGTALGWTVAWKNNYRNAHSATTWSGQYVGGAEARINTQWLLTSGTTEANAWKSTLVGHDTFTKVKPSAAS
Excerpt: as §1, §2, §3

T1 sequence (P22629 25-183, species assumed): as the sequence (P22629 25-183) above

AWRHPQFGG [Strep-tag I]
Kd (streptavidin [1]): 10 to 37 µM

DLYDIDRNWVGHPQG [motif 1, D L Y D I D R N W V G H P Q G, reference compound]
Kd (streptavidin [2]): 8 µM | resonance units (RU) (streptavidin [2]; Streptavidin conc. 500 nM): 62 RU | resonance units (RU) (streptavidin [2]; Streptavidin conc. 1 μM): 123 RU | resonance units (RU) (streptavidin [2]; Streptavidin conc. 2 μM): 233 RU | resonance units (RU) (streptavidin [2]; Streptavidin conc. 4 μM): 407 RU | resonance units (RU) (streptavidin [2]; Streptavidin conc. 8 μM): 621 RU | resonance units (RU) (streptavidin [2]; Streptavidin conc. 16 μM): 779 RU | resonance units (RU) (streptavidin [2]; Streptavidin conc. 32 μM): 955 RU

DNYDADLAWDTHPQD [motif 2, D N Y D A D L A W D T H P Q D, reference compound]
Kd (streptavidin [2]): 70 µM | resonance units (RU) (streptavidin [2]; Streptavidin conc. 3 μM): 64 RU | resonance units (RU) (streptavidin [2]; Streptavidin conc. 6 μM): 98 RU | resonance units (RU) (streptavidin [2]; Streptavidin conc. 15 μM): 201 RU | resonance units (RU) (streptavidin [2]; Streptavidin conc. 30 μM): 337 RU | resonance units (RU) (streptavidin [2]; Streptavidin conc. 60 μM): 536 RU

DVDAWLDER
Kd (streptavidin [3]; read-out: Kd): 0.94 ± 0.14 µM

DVEAWFDER
Kd (streptavidin [3]): not measurable

DVEAWIADPAVHFTT [motif 4, D V E A W I A D P A V H F T T]
Kd (streptavidin [2]): 0.2 µM | resonance units (RU) (streptavidin [2]; Streptavidin conc. 30 nM): 68 RU | resonance units (RU) (streptavidin [2]; Streptavidin conc. 60 nM): 171 RU | resonance units (RU) (streptavidin [2]; Streptavidin conc. 125 nM): 280 RU | resonance units (RU) (streptavidin [2]; Streptavidin conc. 250 nM): 384 RU | resonance units (RU) (streptavidin [2]; Streptavidin conc. 500 nM): 478 RU | resonance units (RU) (streptavidin [2]; Streptavidin conc. 1 μM): 560 RU | resonance units (RU) (streptavidin [2]; Streptavidin conc. 2 μM): 644 RU

DVEAWL
streptavidin binding (streptavidin [4]): sufficient streptavidin binding

DVEAWLDAR
Kd (streptavidin [3]; read-out: Kd): 0.16 ± 0.03 µM

DVEAWLDER
Kd (streptavidin [3]; read-out: Kd): 0.24 ± 0.04 µM | streptavidin binding (streptavidin [4]): clearly better streptavidin binding

DVEAWLDERVPLVET [motif 3, D V E A W L D E R V P L V E T]
percentage distribution of the protein, fraction D (streptavidin-Sepharose; application of sample/passage): 3.5% | percentage distribution of the protein, fraction E1 (streptavidin-Sepharose; elution fraction 1, 2 mM biotin): 0.4% | percentage distribution of the protein, fraction E2 (streptavidin-Sepharose; elution fraction 2, 2 mM biotin): 76.9% | percentage distribution of the protein, fraction E3 (streptavidin-Sepharose; elution fraction 3, 2 mM biotin): 0.7% | applied protein recovered for the eluate (streptavidin-Sepharose; streptavidin-Sepharose): 78% | applied protein recovered from the column (streptavidin-Sepharose; streptavidin-Sepharose): 90% | percentage distribution of the protein, Tot. (streptavidin-Sepharose; sum of all fractions): 89.6% | percentage distribution of the protein, fraction W1 (streptavidin-Sepharose; washing fraction 1): 6.8% | percentage distribution of the protein, fraction W2 (streptavidin-Sepharose; washing fraction 2): 1.0% | percentage distribution of the protein, fraction W3 (streptavidin-Sepharose; washing fraction 3): 0.3% | Kd (streptavidin [3]; read-out: Kd): 0.0036 ± 0.0006 µM | Kd (streptavidin [2]): 0.084 µM | resonance units (RU) (streptavidin [2]; Streptavidin conc. 15 nM): 98 RU | resonance units (RU) (streptavidin [2]; Streptavidin conc. 30 nM): 242 RU | resonance units (RU) (streptavidin [2]; Streptavidin conc. 60 nM): 461 RU | resonance units (RU) (streptavidin [2]; Streptavidin conc. 125 nM): 613 RU | resonance units (RU) (streptavidin [2]; Streptavidin conc. 250 nM): 704 RU | resonance units (RU) (streptavidin [2]; Streptavidin conc. 500 nM): 786 RU | resonance units (RU) (streptavidin [2]; Streptavidin conc. 2 μM): 946 RU | resonance units (RU) (streptavidin [2]; Streptavidin conc. 4 μM): 983 RU | applied protein recovered for the eluate (StrepTactin-Sepharose; StrepTactin-Sepharose): 71% | applied protein recovered from the column (StrepTactin-Sepharose; StrepTactin-Sepharose): 84% | percentage distribution of the protein, fraction D (StrepTactin-Sepharose; application of sample/passage): 3.0% | percentage distribution of the protein, fraction E1 (StrepTactin-Sepharose; elution fraction 1, 2.5 mM desthiobiotin): 0.9% | percentage distribution of the protein, fraction E2 (StrepTactin-Sepharose; elution fraction 2, 2.5 mM desthiobiotin): 45.9% | percentage distribution of the protein, fraction E3 (StrepTactin-Sepharose; elution fraction 3, 2.5 mM desthiobiotin): 23.2% | percentage distribution of the protein, fraction E4 (StrepTactin-Sepharose; elution fraction 4, 2.5 mM desthiobiotin): 1.0% | percentage distribution of the protein, fraction E5 (StrepTactin-Sepharose; elution fraction 5, 2.5 mM desthiobiotin): 0.3% | percentage distribution of the protein, Tot. (StrepTactin-Sepharose; sum of all fractions): 84.4% | percentage distribution of the protein, fraction W1 (StrepTactin-Sepharose; washing fraction 1): 7.4% | percentage distribution of the protein, fraction W2 (StrepTactin-Sepharose; washing fraction 2): 1.8% | percentage distribution of the protein, fraction W3 (StrepTactin-Sepharose; washing fraction 3): 0.9%

DVEAWLGAR
Kd (streptavidin [3]; read-out: Kd): 0.017 ± 0.004 µM

DVEAWLGARVPLVET
Kd (streptavidin [3]; read-out: Kd): 0.0041 ± 0.0006 µM

DVEAWLGER
Kd (streptavidin [3]; read-out: Kd): 0.017 ± 0.004 µM

DVEAWLGERVPLVET
Kd (streptavidin [3]; read-out: Kd): 0.0042 ± 0.0007 µM

DVEAWRDER
Kd (streptavidin [3]): not measurable

DVGAWLDER
Kd (streptavidin [3]; read-out: Kd): 0.57 ± 0.09 µM

MDEKTTGWRGGIIVVEGLAGELEQLRARLEHHPQGQREP [SBP-tag]
Kd (streptavidin [1]): 0.0025 µM

WSHPQFEK [Strep-tag II]
Kd (streptavidin [1]): 18 to 72 µM
